Data taken from patent US4820695A, “C-20-dihydro-deoxy-(cyclic amino)-derivatives of macrolide antibiotics” (priority 1987, dated 1989).
Values after ≈ are worked out from the molar mass of the structure shown. Like-named read-outs stand apart in the source and are kept apart here.

Assays:
[1] = tested on: Streptococcus pyogenes C203; test: MIC, standard agar-dilution assay (Table IX); type: cell-based; conditions: read-out: MIC
[2] = tested on: Staphylococcus aureus 19C; test: MIC, broth-dilution microtiter test (Table X); type: cell-based
From the text: (§1) The MIC's in Table X were obtained using conventional broth-dilution microtiter tests.

[3] = tested on: Mycoplasma gallisepticum 29C; test: MIC, broth-dilution microtiter test (Table X); type: cell-based; conditions: Mycoplasmoides gallisepticum, read-out: MIC
From the text: as §1

[4] = tested on: Pasteurella multocida 60A; test: MIC, broth-dilution microtiter test (Table X); type: cell-based; conditions: Avian isolate, read-out: MIC
From the text: as §1

[5] = tested on: Pasteurella multocida 17E; test: MIC, broth-dilution microtiter test (Table X); type: cell-based; conditions: Bovine isolate, read-out: MIC
From the text: as §1

Mycoplasma synoviae 40A = test: MIC, broth-dilution microtiter test (Table X); type: cell-based; conditions: Mycoplasmopsis synoviae, read-out: MIC
From the text: as §1

Streptococcus sp. 19F = test: MIC, broth-dilution microtiter test (Table X); type: cell-based; conditions: read-out: MIC
From the text: as §1

[6] = tested on: Mycoplasma hyopneumoniae S5972; test: MIC, broth-dilution microtiter test (Table X); type: cell-based; conditions: Mesomycoplasma hyopneumoniae, read-out: MIC
From the text: as §1

[7] = tested on: Pasteurella hemolytica 22C; test: MIC, broth-dilution microtiter test (Table X); type: cell-based; conditions: read-out: MIC
From the text: as §1

Mycoplasma hyorhinis 29E = test: MIC, broth-dilution microtiter test (Table X); type: cell-based; conditions: read-out: MIC
From the text: as §1

[8] = tested on: Staphylococcus epidermidis EPI1; test: MIC, standard agar-dilution assay (Table IX); type: cell-based; conditions: Staphylococcus epidermidis EPI1; agar-dilution; read-out: MIC
[9] = tested on: Staphylococcus aureus S13E; test: MIC, standard agar-dilution assay (Table IX); type: cell-based; conditions: Staphylococcus aureus, S13E
[10] = tested on: Staphylococcus aureus X400; test: MIC, standard agar-dilution assay (Table IX); type: cell-based; conditions: Staphylococcus aureus X400, Methicillin-resistant strain, read-out: MIC
Escherichia coli N10 = test: MIC, standard agar-dilution assay (Table IX); type: cell-based; conditions: read-out: MIC
Staphyloccus aureus X1.1 = test: MIC, standard agar-dilution assay (Table IX); type: cell-based, Staphylococcus aureus; conditions: Staphylococcus aureus, read-out: MIC
Escherichia coli EC14 = test: MIC, standard agar-dilution assay (Table IX); type: cell-based; conditions: read-out: MIC
[11] = tested on: Streptococcus pneumoniae Park I; test: MIC, standard agar-dilution assay (Table IX); type: cell-based; conditions: Streptococcus pneumoniae Park I; agar-dilution; read-out: MIC
[12] = tested on: Staphylococcus epidermidis 222; test: MIC, standard agar-dilution assay (Table IX); type: cell-based; conditions: read-out: MIC
[13] = tested on: Haemophilus influenzae 76; test: MIC, standard agar-dilution assay (Table IX); type: cell-based; conditions: Haemophilus influenzae 76, Ampicillin-resistant strain, read-out: MIC
Klebsiella X26 = test: MIC, standard agar-dilution assay (Table IX); type: cell-based; conditions: read-out: MIC
[14] = tested on: Streptococcus Group D 2041; test: MIC, standard agar-dilution assay (Table IX); type: cell-based; conditions: GROUPD2041, read-out: MIC
Escherichia coli TEM = test: MIC, standard agar-dilution assay (Table IX); type: cell-based; conditions: read-out: MIC
[15] = tested on: Haemophilus influenzae C.L.; test: MIC, standard agar-dilution assay (Table IX); type: cell-based; conditions: Ampicillin-sensitive strain, read-out: MIC
[16] = tested on: Staphylococcus aureus V41; test: MIC, standard agar-dilution assay (Table IX); type: cell-based; conditions: Staphylococcus aureus V41, Penicillin-resistant strain, read-out: MIC
[17] = tested on: Streptococcus pyogenes C203; test: ED50 in mice experimentally infected with S. pyogenes C203 (Table XI); type: in vivo; conditions: Streptococcus pyogenes, doses given 1 and 4 hours postinfection, read-out: ED50
Outline: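 Mice infected with S. pyogenes C203 received two doses of compound, 1 and 4 h post-infection. ED50 is the dose in mg/kg (per dose, ×2) protecting 50% of animals.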

[18] = tested on: Streptococcus Group D X66; test: MIC, standard agar-dilution assay (Table IX); type: cell-based; conditions: read-out: MIC
Staphylococcus aureus = test: MIC, broth-dilution microtiter test (Table X); type: cell-based; conditions: read-out: MIC
From the text: as §1

[19] = Titratable groups in 66% aqueous DMF (Tables XIV-XVI); type: physicochemical
From the text: ^c Run in 66% aqueous DMF
^d Run in 66% aqueous DMF

Pasteurella multocida [20] = test: Pasteurella infection in one-day-old chicks, medicated drinking water (Table XIII); type: in vivo; conditions: Administered in the available drinking water at 2 g/gal
Outline: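 One-day-old chicks were challenged subcutaneously with 0.1 ml of a 10^-4 dilution of a 20-hour tryptose broth culture of avian P. multocida. Compound was given in drinking water at 2 g/gal, available from 4 to 20 hours before challenge and throughout the 3-day test period.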

Pasteurella multocida [21] = test: Pasteurella infection in one-day-old chicks, subcutaneous administration (Table XII); type: in vivo; conditions: Administered subcutaneously, 30 mg/kg × 2, 1 and 4 hours post-challenge
Outline: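 One-day-old chicks were challenged subcutaneously with 0.1 ml of a 10^-4 dilution of a 20-h tryptose broth culture of avian P. multocida. Compounds were then given by subcutaneous injection at 30 mg/kg, at 1 and 4 hours post-challenge.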

[22] = Titratable groups (first value)

Structure (SMILES)	MIC [1] [µg/mL]	MIC [2] [µg/mL]	MIC [3] [µg/mL]	MIC [4] [µg/mL]	MIC [5] [µg/mL]	MIC (Mycoplasma synoviae 40A) [µg/mL]	MIC (Streptococcus sp. 19F) [µg/mL]	MIC [6] [µg/mL]	MIC [7] [µg/mL]	MIC (Mycoplasma hyorhinis 29E) [µg/mL]	MIC [8] [µg/mL]	MIC [9] [µg/mL]	MIC [10] [µg/mL]	MIC (Escherichia coli N10) [µg/mL]	MIC (Staphyloccus aureus X1.1) [µg/mL]	MIC (Escherichia coli EC14) [µg/mL]	MIC [11] [µg/mL]	MIC [12] [µg/mL]	ED50 ([17]; C203, Oral) [mg/kg]	ED50 ([17]; C203, sc, Subcutaneous) [mg/kg]	further results
CCC1OC(=O)CC(O)C(C)C(OC2OC(C)C(O)C(N(C)C)C2O)C(CCN2C(C)CCCC2C)CC(C)C(=O)C=CC(C)=CC1COC1OC(C)C(O)C(OC)C1OC (stereo not shown) [Compound D41]	1 (≈ 1.15 µM)	6.25 (≈ 7.19 µM)	6.25 (≈ 7.19 µM)	50 (≈ 57.5 µM)	25 (≈ 28.8 µM)	1.56 (≈ 1.79 µM)	6.25 (≈ 7.19 µM)	3.12 (≈ 3.59 µM)	> 50	50 (≈ 57.5 µM)	8 (≈ 9.2 µM)	8 (≈ 9.2 µM)	8 (≈ 9.2 µM)	> 128	8 (≈ 9.2 µM)	> 128	1 (≈ 1.15 µM)	2 (≈ 2.3 µM)	> 100	2.04	MIC [13]: 64 µg/mL (≈ 73.6 µM); MIC (Klebsiella X26): 128 µg/mL (≈ 147 µM); MIC [14]: 32 µg/mL (≈ 36.8 µM); MIC (Escherichia coli TEM): > 128 µg/mL; MIC [15]: 64 µg/mL (≈ 73.6 µM); MIC [16]: 8 µg/mL (≈ 9.2 µM); MIC [18]: 32 µg/mL (≈ 36.8 µM)
CCC1OC(=O)CC(O)C(C)C(OC2OC(C)C(O)C(N(C)C)C2O)C(CCN2CCC3CCCCC32)CC(C)C(=O)C=CC(C)=CC1COC1OC(C)C(O)C(OC)C1OC (stereo not shown) [Compound D44]		3.12 (≈ 3.54 µM)	1.56 (≈ 1.77 µM)	12.5 (≈ 14.2 µM)	12.5 (≈ 14.2 µM)	0.097 (≈ 0.11 µM)	1.56 (≈ 1.77 µM)	0.39 (≈ 0.443 µM)	12.5 (≈ 14.2 µM)	50 (≈ 56.7 µM)									37.9	0.69	
CCC1OC(=O)CC(O)C(C)C(OC2OC(C)C(O)C(N(C)C)C2O)C(CCN2CCc3ccccc32)CC(C)C(=O)C=CC(C)=CC1COC1OC(C)C(O)C(OC)C1OC (stereo not shown) [Compound D42]	0.5 (≈ 0.571 µM)	0.78 (≈ 0.891 µM)	0.097 (≈ 0.111 µM)	25 (≈ 28.6 µM)	12.5 (≈ 14.3 µM)	0.195 (≈ 0.223 µM)	0.78 (≈ 0.891 µM)	0.097 (≈ 0.111 µM)	50 (≈ 57.1 µM)	3.12 (≈ 3.57 µM)	0.5 (≈ 0.571 µM)	0.5 (≈ 0.571 µM)	0.5 (≈ 0.571 µM)	> 128	5 (≈ 5.71 µM)	> 128	0.25 (≈ 0.286 µM)	0.25 (≈ 0.286 µM)			MIC [13]: 8 µg/mL (≈ 9.14 µM); MIC (Klebsiella X26): 64 µg/mL (≈ 73.1 µM); MIC [14]: 2 µg/mL (≈ 2.29 µM); MIC (Escherichia coli TEM): > 128 µg/mL; MIC [15]: 16 µg/mL (≈ 18.3 µM); MIC [16]: 0.25 µg/mL (≈ 0.286 µM); MIC [18]: 2 µg/mL (≈ 2.29 µM)
CCC1OC(=O)CC(O)C(C)C(OC2OC(C)C(O)C(N(C)C)C2O)C(CCN2CCC3(CCCCC3)CC2)CC(C)C(=O)C=CC(C)=CC1COC1OC(C)C(O)C(OC)C1OC (stereo not shown) [Compound D43]		1.56 (≈ 1.72 µM)	0.195 (≈ 0.214 µM)	6.25 (≈ 6.87 µM)	6.25 (≈ 6.87 µM)	< 0.048	1.56 (≈ 1.72 µM)	0.78 (≈ 0.858 µM)	6.25 (≈ 6.87 µM)	25 (≈ 27.5 µM)									8	1.34	
CCC1OC(=O)CC(O)C(C)C(OC2OC(C)C(O)C(N(C)C)C2O)C(CCN2CCCCC2)CC(C)C(=O)C=CC(C)=CC1COC1OC(C)C(O)C(OC)C1OC (stereo not shown) [Compound D2, 20-DH-DO-20-(piperidin-1-yl)desmycosin]	0.25 (≈ 0.297 µM)		3.12 (≈ 3.71 µM)	6.25 (≈ 7.43 µM)	25 (≈ 29.7 µM)	0.78 (≈ 0.927 µM)	6.25 (≈ 7.43 µM)	12.5 (≈ 14.9 µM)	3.12 (≈ 3.71 µM)	> 50	1 (≈ 1.19 µM)	0.5 (≈ 0.594 µM)	1 (≈ 1.19 µM)	> 128	0.5 (≈ 0.594 µM)	> 128	0.25 (≈ 0.297 µM)	0.5 (≈ 0.594 µM)	50	0.9	MIC (Staphylococcus aureus): 0.78 µg/mL (≈ 0.927 µM); MIC [13]: 16 µg/mL (≈ 19 µM); MIC (Klebsiella X26): 16 µg/mL (≈ 19 µM); MIC [14]: 16 µg/mL (≈ 19 µM); MIC (Escherichia coli TEM): 16 µg/mL (≈ 19 µM); pKa ([19]; Titratable groups): 9.1; pKa [19, 22]: 7.8; MIC [15]: 16 µg/mL (≈ 19 µM); MIC [16]: 0.5 µg/mL (≈ 0.594 µM); Number of Deaths/Number Treated (Pasteurella multocida [20]): 5/10; Number of Deaths/Number Treated (Pasteurella multocida [21]): 0/10; MIC [18]: 16 µg/mL (≈ 19 µM)
CCC1OC(=O)CC(O)C(C)C(OC2OC(C)C(O)C(N(C)C)C2O)C(CCN2CCCC2)CC(C)C(=O)C=CC(C)=CC1COC1OC(C)C(O)C(OC)C1OC (stereo not shown) [Compound D1, 20-DH-DO-20-(pyrrolidin-1-yl)desmycosin]	1 (≈ 1.21 µM)		12.5 (≈ 15.1 µM)	6.25 (≈ 7.56 µM)	6.25 (≈ 7.56 µM)	0.39 (≈ 0.472 µM)	6.25 (≈ 7.56 µM)	12.5 (≈ 15.1 µM)	6.25 (≈ 7.56 µM)	50 (≈ 60.5 µM)	2 (≈ 2.42 µM)	2 (≈ 2.42 µM)	2 (≈ 2.42 µM)	> 128	2 (≈ 2.42 µM)	> 128	0.5 (≈ 0.605 µM)	1 (≈ 1.21 µM)	> 50	1.2	MIC (Staphylococcus aureus): 0.78 µg/mL (≈ 0.943 µM); MIC [13]: 16 µg/mL (≈ 19.3 µM); MIC (Klebsiella X26): 16 µg/mL (≈ 19.3 µM); MIC [14]: 16 µg/mL (≈ 19.3 µM); MIC (Escherichia coli TEM): 128 µg/mL (≈ 155 µM); pKa ([19]; Titratable groups): 9.5; pKa [19, 22]: 7.9; MIC [15]: 16 µg/mL (≈ 19.3 µM); MIC [16]: 2 µg/mL (≈ 2.42 µM); Number of Deaths/Number Treated (Pasteurella multocida [20]): 9/10; Number of Deaths/Number Treated (Pasteurella multocida [21]): 0/10; MIC [18]: 32 µg/mL (≈ 38.7 µM)
